Biological target: ATP-dependent translocase ABCB1 (Homo sapiens, UniProt P08183)
Assay: Inhibition of P-glycoprotein expressed in MDR CCRF vcr1000 cells by daunorubicin efflux assay

Chain of ATP-dependent translocase ABCB1 (P08183 whole entry): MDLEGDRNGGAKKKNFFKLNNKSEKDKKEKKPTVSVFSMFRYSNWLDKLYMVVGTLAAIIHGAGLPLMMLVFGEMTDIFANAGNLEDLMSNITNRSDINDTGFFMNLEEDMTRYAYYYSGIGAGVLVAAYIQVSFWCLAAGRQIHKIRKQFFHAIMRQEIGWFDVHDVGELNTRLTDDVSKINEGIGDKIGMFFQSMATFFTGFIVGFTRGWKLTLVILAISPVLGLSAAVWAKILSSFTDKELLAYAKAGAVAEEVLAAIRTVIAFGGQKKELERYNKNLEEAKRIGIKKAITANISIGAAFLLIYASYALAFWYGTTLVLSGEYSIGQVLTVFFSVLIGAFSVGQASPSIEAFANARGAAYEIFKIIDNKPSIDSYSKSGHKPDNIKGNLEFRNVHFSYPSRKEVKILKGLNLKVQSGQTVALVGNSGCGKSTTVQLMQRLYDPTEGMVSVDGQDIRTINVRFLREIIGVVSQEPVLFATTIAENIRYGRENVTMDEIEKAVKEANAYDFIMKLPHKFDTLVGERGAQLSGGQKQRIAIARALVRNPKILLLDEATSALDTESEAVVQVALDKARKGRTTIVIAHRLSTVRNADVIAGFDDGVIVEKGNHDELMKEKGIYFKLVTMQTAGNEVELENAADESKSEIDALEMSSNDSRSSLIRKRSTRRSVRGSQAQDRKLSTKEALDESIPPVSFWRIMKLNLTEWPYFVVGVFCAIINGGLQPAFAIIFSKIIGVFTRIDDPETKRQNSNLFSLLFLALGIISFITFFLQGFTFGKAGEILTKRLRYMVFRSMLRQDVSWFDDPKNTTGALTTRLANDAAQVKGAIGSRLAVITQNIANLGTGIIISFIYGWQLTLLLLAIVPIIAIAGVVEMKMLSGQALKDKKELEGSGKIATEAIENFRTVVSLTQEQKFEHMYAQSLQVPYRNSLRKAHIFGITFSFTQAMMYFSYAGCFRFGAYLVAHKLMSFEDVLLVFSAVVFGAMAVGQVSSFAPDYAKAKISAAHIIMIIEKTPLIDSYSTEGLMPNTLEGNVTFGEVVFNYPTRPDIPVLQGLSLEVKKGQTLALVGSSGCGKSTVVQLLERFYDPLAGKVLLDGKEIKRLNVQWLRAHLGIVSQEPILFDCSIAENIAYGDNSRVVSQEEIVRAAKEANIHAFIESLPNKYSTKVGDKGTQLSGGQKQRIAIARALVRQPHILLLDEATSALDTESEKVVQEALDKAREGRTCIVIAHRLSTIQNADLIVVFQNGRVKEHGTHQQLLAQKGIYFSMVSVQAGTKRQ

| EC50 | Structure (SMILES) |
| --- | --- |
| 0.972 µM | O=C(CCc1ccccc1)c1ccc(OCC(O)CN2CCCCC2)cc1 (stereo unspecified) |
| 1.01 µM | O=C(CCc1ccccc1)c1ccccc1OCCCCN1CCOCC1 |
| 1.69 µM | CCCN(CC(O)COc1ccccc1C(=O)CCc1ccccc1)C(=O)c1ccccc1 (stereo unspecified) |
| 0.059 µM | Cc1ccccc1N1CCN(CC(O)COc2ccc(Cl)cc2C(=O)CCc2ccccc2)CC1 (stereo unspecified) |
| 0.075 µM | O=C(CCc1cccc2ccccc12)c1ccccc1OCC(O)CN1CCC(O)(c2ccccc2)CC1 (stereo unspecified) |
| 2.48 µM | CN(C)CC(O)COc1ccccc1C(=O)CCc1ccccc1 (stereo unspecified) |
| 0.192 µM | O=C(CCc1ccccc1)c1ccccc1OCCCCN1CCN(c2ccc(F)cc2)CC1 |
| 1.73 µM | O=C(CCc1ccccc1)c1cc(O)ccc1OCC(O)CN1CCCCC1 (stereo unspecified) |
| 3.65 µM | O=C(CCc1ccccc1)c1ccccc1OCC(O)CN1CCOCC1 (stereo unspecified) |
| 3.2 µM | CC(=O)c1ccccc1OCC(O)CN1CCC(O)(c2ccccc2)CC1 (stereo unspecified) |
| 0.797 µM | O=C(CCc1ccccc1)c1ccccc1OCC(O)CNCC(c1ccccc1)c1ccccc1 (stereo unspecified) |
| 0.357 µM | CC(=O)c1ccccc1OCC(O)CN1CCC(Cc2ccccc2)CC1 (stereo unspecified) |
| 0.13 µM | O=C(CCc1ccccc1)c1ccccc1OCC(O)CN1CCN(C(=O)c2ccccc2)CC1 (stereo unspecified) |
| 0.537 µM | CC(=O)c1cccc(OCC(O)CN2CCN(c3ccccc3C)CC2)c1 (stereo unspecified) |
| 0.173 µM | COC(CCc1ccccc1)c1ccccc1OCC(O)CN1CCCCC1 (stereo unspecified) |
| 0.014 µM | COc1ccc(CCC(=O)c2ccccc2OCC(O)CN2CCN(c3ccccc3C)CC2)cc1 (stereo unspecified) |
| 6.88 µM | O=C(CCc1ccccc1)c1ccc(OCC(O)CN2CCOCC2)cc1 (stereo unspecified) |

| EC50 | Structure (SMILES) |
| --- | --- |
| 3.48 µM | O=C(CCc1ccccc1)c1cccc(OCC(O)CN2CCOCC2)c1 (stereo unspecified) |
| 0.116 µM | O=C(CCc1ccccc1)c1cc(OCc2ccccc2)ccc1OCC(O)CN1CCN(Cc2ccccc2)CC1 (stereo unspecified) |
| 3.02 µM | CCCNCC(O)COc1ccc(O)cc1C(=O)CCc1ccccc1 (stereo unspecified) [5-HYDROXY PROPAFENONE] |
| 1.54 µM | COC(=O)c1ccc(NCC(O)COc2ccccc2C(=O)CCc2ccccc2)cc1 (stereo unspecified) |
| 0.177 µM | COc1ccccc1N1CCN(CC(O)c2oc3ccccc3c2CCc2ccccc2)CC1 (stereo unspecified) |
| 0.296 µM | COc1ccc(C(=O)CCc2ccccc2)c(OCC(O)CN2CCN(c3ccccc3C)CC2)c1 (stereo unspecified) |
| 0.659 µM | O=C(CCc1ccccc1)c1ccccc1OCC(O)CN1CCN(Cc2ccccc2)CC1 (stereo unspecified) |
| 0.23 µM | COc1ccccc1N1CCN(CC(O)COc2ccccc2C(=O)CCc2ccccc2)CC1 (stereo unspecified) |
| 0.013 µM | Cc1ccccc1N1CCN(CC(O)COc2ccccc2C(=O)CCc2ccc(N(C)C)cc2)CC1 (stereo unspecified) |
| 0.179 µM | O=C(CCc1ccccc1)c1ccccc1OCCCCCCCN1CCCCC1 |
| 0.46 µM | CC(C)OC(CCc1ccccc1)c1ccccc1OCC(O)CN1CCCCC1 (stereo unspecified) |
| 2.57 µM | O=C(CCc1ccccc1)c1ccccc1OCC(O)CNc1ccc([N+](=O)[O-])cc1 (stereo unspecified) |
| 1590 µM | O=C(O)COc1ccccc1C(=O)CCc1ccccc1 |
| 0.533 µM | O=C(CCc1ccccc1)c1ccccc1OCCCCN1CCCCC1 |
| 0.901 µM | OC(COc1ccccc1C(O)CCc1ccccc1)CN1CCCCC1 (stereo unspecified) |
| 1.45 µM | O=C(CCc1ccccc1)c1ccccc1OCCN1CCCCC1 |
| 0.292 µM | CC(C)(C)C(NCC(O)COc1ccccc1C(=O)CCc1ccccc1)c1ccccc1 (stereo unspecified) |

The next lines start with the compound.

| Structure (SMILES) | EC50 |
| --- | --- |
| O=C(CCc1ccccc1)c1ccccc1OCC(O)CN(C(c1ccccc1)c1ccccc1)C(c1ccccc1)c1ccccc1 (stereo unspecified) | 10.4 µM |
| CC(=O)c1cccc(OCC(O)CN2CCOCC2)c1 (stereo unspecified) | 128 µM |
| O=C(CCc1ccccc1)c1ccccc1OCC(O)CN1CCC(O)(c2ccccc2)CC1 (stereo unspecified) | 0.058 µM |
| O=C(CCc1ccccc1)c1cccc(OCC(O)CNCCC(c2ccccc2)c2ccccc2)c1 (stereo unspecified) | 0.19 µM |
| CC(C)(C)c1ccc(N2C(=O)c3ccccc3NC2c2ccc3c(c2)OCO3)cc1 (stereo unspecified) | 0.73 µM |
| CC(=O)c1ccc(OCC(O)CN2CCCCC2)cc1 (stereo unspecified) | 49 µM |
| CCC(=O)c1ccccc1OCC(O)CN1CCCCC1 (stereo unspecified) | 14.3 µM |
| C=CCn1c(SCCCC)nc2c(c1=O)C1(CCCC1)Cc1ccccc1-2 | 3.5 µM |
| COc1ccc(CC(O)CO)cc1OC (stereo unspecified) | > 500 µM |
| CC(C)N(CC(O)COc1ccccc1C(O)CCc1ccccc1)C(C)C (stereo unspecified) | 1.74 µM |
| CC(=O)c1c(C)cc(C)c(CSc2nc3ccc(NC(=O)CCc4ccccc4)cc3s2)c1C | 0.3 µM |
| COc1cccc(/C=N/NC(=O)C(=O)NC(C)(C)C)c1O | 102 µM |
| O=C1CCc2c(OCC(O)CN3CCCCC3)cccc21 (stereo unspecified) | 11.2 µM |
| c1ccc(CCc2c(CCN3CCCCC3)oc3ccccc23)cc1 | 0.98 µM |
| CC(=O)c1cc(C)ccc1OCC(O)CN1CCCCC1 (stereo unspecified) | 5.47 µM |
| CC(=O)c1cccc(OCC(O)CN2CCCCC2)c1 (stereo unspecified) | 9.07 µM |
| O=C(CCc1ccccc1)c1ccc(OCC(O)CNCCC(c2ccccc2)c2ccccc2)cc1 (stereo unspecified) | 0.505 µM |
| CCCNC[C@H](O)c1oc2ccccc2c1CCc1ccccc1 | 1.06 µM |
| CCOC(=O)C(=NNc1c(Cl)cc(Cl)cc1Cl)C(=O)OCC | 17.7 µM |
| CCC(C)c1ccc(N2C(=O)c3ccccc3NC2c2ccc(OC)cc2)cc1 (stereo unspecified) | 0.76 µM |
| CC1c2ccccc2OC1C(=O)N1CCCCC1 (stereo unspecified) | 104 µM |
| CCc1ccc(N2C(=O)c3ccccc3NC2c2ccc(OCc3ccccc3)cc2)cc1 (stereo unspecified) | > 100 µM |
| Cc1cc(C)n(-c2nnc(N/N=C\c3cccnc3)nn2)n1 | 158 µM |
| CCOc1ccc(N2C(=O)c3ccccc3NC2c2ccc(N(C)C)cc2)cc1 (stereo unspecified) | 25.1 µM |
| CC(=O)c1ccccc1OCC(O)CN1CCOCC1 (stereo unspecified) | 207 µM |
| CCCCOc1ccc(C(=O)Nc2ccc3nc(SCc4c(C)cc(C)c(C(C)=O)c4C)sc3c2)cc1 | 0.097 µM |
| O=C1c2cccc(OCC(O)CN3CCCCC3)c2CC1Cc1ccccc1 (stereo unspecified) | 0.142 µM |

Reference: ChEMBL document CHEMBL1142990, “Self-organizing maps for identification of new inhibitors of P-glycoprotein” (J Med Chem, 2007)
